In patent publication US10106558B2, “Azolobenzazine compounds, compositions comprising these compounds and their use for controlling invertebrate pests” (BASF SE, priority 2015, dated 2018):

What was measured:
Assay type in all cases: in vivo
[1] = system: Southern Armyworm (Spodoptera eridania), 2nd instar larvae; assay: Action on southern armyworm 2nd instar larvae, sprayed lima bean plants; settings: 96 h, 4 days after treatment, read-out: mortality in comparison with untreated controls
Experimental: Example B10: Action on Southern Armyworm (Spodoptera eridania), 2nd Instar Larvae
The active compounds were formulated by a Tecan liquid handler in 100% cyclohexanone as a 10,000 ppm solution supplied in tubes. The 10,000 ppm solution was serially diluted in 100% cyclohexanone to make interim solutions. These served as stock solutions for which final dilutions were made by the Tecan in 50% acetone:50% water (v/v) into 10 or 20 ml glass vials. A nonionic surfactant (Kinetic®) was included in the solution at a volume of 0.01% (v/v). The vials were then inserted into an automated electrostatic sprayer equipped with an atomizing nozzle for application to plants/insects.
Lima bean plants (variety Sieva) were grown 2 plants to a pot and selected for treatment at the 1st true leaf stage. Test solutions were sprayed onto the foliage by an automated electrostatic plant sprayer equipped with an atomizing spray nozzle. The plants were dried in the sprayer fume hood and then removed from the sprayer. Each pot was placed into perforated plastic bags with a zip closure. About 10 to 11 armyworm larvae were placed into the bag and the bags zipped closed. Test plants were maintained in a growth room at about 25° C. and about 20-40% relative humidity for 4 days, avoiding direct exposure to fluorescent light (24 hour photoperiod) to prevent trapping of heat inside the bags. Mortality and reduced feeding were assessed 4 days after treatment, compared to untreated control plants.

[2] = system: Silverleaf Whitefly (Bemisia argentifolii) (Adults); assay: Action on silverleaf whitefly adults, sprayed cotton plants; settings: 72 h, 3 days after treatment, read-out: mortality in comparison with untreated controls
Experimental: Example B4: Action on Silverleaf Whitefly (Bemisia argentifolii) (Adults)
The active compounds were formulated by a Tecan liquid handler in 100% cyclohexanone as a 10,000 ppm solution supplied in tubes. The 10,000 ppm solution was serially diluted in 100% cyclohexanone to make interim solutions. These served as stock solutions for which final dilutions were made by the Tecan in 50% acetone:50% water (v/v) into 5 or 10 ml glass vials. A nonionic surfactant (Kinetic®) was included in the solution at a volume of 0.01% (v/v). The vials were then inserted into an automated electrostatic sprayer equipped with an atomizing nozzle for application to plants/insects.
Cotton plants at the cotyledon stage (one plant per pot) were sprayed by an automated electrostatic plant sprayer equipped with an atomizing spray nozzle. The plants were dried in the sprayer fume hood and then removed from the sprayer. Each pot was placed into a plastic cup and about 10 to 12 whitefly adults (approximately 3-5 days old) were introduced. The insects were collected using an aspirator and a nontoxic Tygon® tubing connected to a barrier pipette tip. The tip, containing the collected insects, was then gently inserted into the soil containing the treated plant, allowing insects to crawl out of the tip to reach the foliage for feeding. Cups were covered with a reusable screened lid. Test plants were maintained in a growth room at about 25° C. and about 20-40% relative humidity for 3 days, avoiding direct exposure to fluorescent light (24 hour photoperiod) to prevent trapping of heat inside the cup. Mortality was assessed 3 days after treatment, compared to untreated control plants.

[3] = system: Diamond Back Moth (Plutella xylostella); assay: Action on diamond back moth, dipped cabbage leaves; settings: 3rd instar larvae, 72 hours after treatment, read-out: mortality in comparison with untreated controls
Experimental: Example B9: Action on Diamond Back Moth (Plutella xylostella)
The active compound is dissolved at the desired concentration in a mixture of 1:1 (vol:vol) distilled water:acetone. Surfactant (Kinetic® HV) is added at a rate of 0.01% (vol/vol). The test solution is prepared at the day of use.
Leaves of cabbage were dipped in test solution and air-dried. Treated leaves were placed in petri dishes lined with moist filter paper and inoculated with ten 3rd instar larvae. Mortality was recorded 72 hours after treatment. Feeding damages were also recorded using a scale of 0-100%.

[4] = system: tobacco budworm (Heliothis virescens); assay: Action on tobacco budworm, eggs on insect diet in 96-well microtiter plates; settings: 120 h, egg and larval mortality visually assessed after 5 days, read-out: mortality in comparison with untreated controls
Experimental: Example B6: Action on Tobacco Budworm (Heliothis virescens)
For evaluating control of tobacco budworm (Heliothis virescens) the test unit consisted of 96-well-microtiter plates containing an insect diet and 15-25 H. virescens eggs.
The compounds were formulated using a solution containing 75% v/v water and 25% v/v DMSO. Different concentrations of formulated compounds were sprayed onto the insect diet at 10 μl, using a custom built micro atomizer, at two replications.
After application, microtiter plates were incubated at about 28±1° C. and about 80±5% relative humidity for 5 days. Egg and larval mortality was then visually assessed.

[5] = system: boll weevil (Anthonomus grandis); assay: Action on boll weevil, eggs on insect diet in 96-well microtiter plates; settings: 120 h, 800 ppm, egg and larval mortality visually assessed after 5 days, read-out: mortality in comparison with untreated controls
Experimental: Example B3: Action on Boll Weevil (Anthonomus grandis)
For evaluating control of boll weevil (Anthonomus grandis) the test unit consisted of 96-well-microtiter plates containing an insect diet and 5-10 A. grandis eggs.
(§1) The compounds were formulated using a solution containing 75% v/v water and 25% v/v DMSO. Different concentrations of formulated compounds were sprayed onto the insect diet at 5 μl, using a custom built micro atomizer, at two replications.
After application, microtiter plates were incubated at about 25±1° C. and about 75±5% relative humidity for 5 days. Egg and larval mortality was then visually assessed.

[6] = system: yellow fever mosquito (Aedes aegypti); assay: whole plant or invertebrate; settings: 48 h, larval mortality visually assessed after 2 days, read-out: mortality in comparison with untreated controls
Experimental: Example B1: Action on Yellow Fever Mosquito (Aedes aegypti)
For evaluating control of yellow fever mosquito (Aedes aegypti) the test unit consisted of 96-well-microtiter plates containing 200 μl of tap water per well and 5-15 freshly hatched A. aegypti larvae.
The active compounds were formulated using a solution containing 75% (v/v) water and 25% (v/v) DMSO. Different concentrations of formulated compounds or mixtures were sprayed onto the insect diet at 2.5 μl, using a custom built micro atomizer, at two replications.
After application, microtiter plates were incubated at 28+1° C., 80+5% RH for 2 days. Larval mortality was then visually assessed.

[7] = system: Mediterranean fruitfly (Ceratitis capitata); assay: Action on Mediterranean fruitfly, eggs on insect diet in microtiter plates; settings: 120 h, egg and larval mortality visually assessed after 5 days, read-out: mortality in comparison with untreated controls
Experimental: Example B5: Action on Mediterranean Fruitfly (Ceratitis capitata)
For evaluating control of Mediterranean fruitfly (Ceratitis capitata) the test unit consisted of microtiter plates containing an insect diet and 50-80 C. capitata eggs.
as §1
After application, microtiter plates were incubated at about […] and about 80+5% relative humidity for 5 days. Egg and larval mortality was then visually assessed.

[8] = system: Orchid Thrips (Dichromothrips corbetti); assay: Action on orchid thrips, floral-immersion technique; settings: adult thrips, 72 hours after treatment, read-out: mortality in comparison with untreated controls
Experimental: Example B2: Action on Orchid Thrips (Dichromothrips Corbetti)
Dichromothrips corbettiadults used for bioassay were obtained from a colony maintained continuously under laboratory conditions. For testing purposes, the test compound is diluted in a 1:1 mixture of acetone:water (vol:vol), plus Kinetic® HV at a rate of 0.01% v/v.
Thrips potency of each compound was evaluated by using a floral-immersion technique. All petals of individual, intact orchid flowers were dipped into treatment solution and allowed to dry in Petri dishes. Treated petals were placed into individual re-sealable plastic along with about 20 adult thrips. All test arenas were held under continuous light and a temperature of about 28° C. for duration of the assay. After 3 days, the numbers of live thrips were counted on each petal. The percent mortality was recorded 72 hours after treatment.

CC(C)c1ccccc1NC(=S)N/N=C/c1ccc2c(ccc3c2ncn3-c2ccc(OC(F)(F)F)cc2)n1 [Compound C-3, 1-(2-isopropylphenyl)-3-[(E)-[3-[4-(trifluoromethoxy)phenyl]imidazo[4,5-f]quinolin-7-yl]methyleneamino]thiourea]
≥ 75%: mortality at 500 ppm [1] | mortality at 500 ppm [2] | mortality at 500 ppm [3] | mortality at 800 ppm [4] | mortality at 800 ppm [5]

CC(C)c1ccccc1N1C(=O)CS/C1=N\N=C\c1ccc2c(ccc3c2ncn3-c2ccc(OC(F)(F)F)cc2)n1 [Compound C-4, (2Z)-3-(2-isopropylphenyl)-2-[(E)-[3-[4-(trifluoromethoxy)phenyl]imidazo[4,5-f]quinolin-7-yl]methylenehydrazono]thiazolidin-4-one]
≥ 75%: mortality at 500 ppm [1] | mortality at 800 ppm [6] | mortality at 500 ppm [2] | mortality at 500 ppm [3] | mortality at 800 ppm [4] | mortality at 800 ppm [5] | mortality at 800 ppm [7] | mortality at 500 ppm [8]

CC(C)c1ccccc1N1C(=O)CS/C1=N\N=C\c1cnc2c(ccc3c2ncn3-c2ccc(OC(F)(F)F)cc2)c1 [Compound C-17, (2Z)-3-(2-isopropylphenyl)-2-[(E)-[3-[4-(trifluoromethoxy)phenyl]imidazo[4,5-h]quinolin-7-yl]methylenehydrazono]thiazolidin-4-one]
≥ 75%: mortality at 800 ppm [6] | mortality at 500 ppm [2] | mortality at 500 ppm [3] | mortality at 800 ppm [4] | mortality at 800 ppm [5] | mortality at 800 ppm [7] | mortality at 500 ppm [8]

CC(C)c1ccccc1NC(=S)N/N=C/c1ccc2c(ccc3c(-c4ccc(OC(F)(F)F)cc4)n(C)nc32)n1 [Compound C-19, 1-(2-isopropylphenyl)-3-[(E)-[2-methyl-3-[4-(trifluoromethoxy)phenyl]pyrazolo[3,4-f]quinolin-7-yl]methyleneamino]thiourea]
≥ 75%: mortality at 500 ppm [1] | mortality at 800 ppm [6] | mortality at 500 ppm [2] | mortality at 800 ppm [4] | mortality at 800 ppm [5] | mortality at 800 ppm [7]

CC(C)c1ccccc1N1C(=O)CS/C1=N\N=C\c1ccc2c(ccc3c(-c4ccc(OC(F)(F)F)cc4)n(C)nc32)n1 [Compound C-20, (2Z)-3-(2-isopropylphenyl)-2-[(E)-[2-methyl-3-[4-(trifluoromethoxy)phenyl]pyrazolo[3,4-f]quinolin-7-yl]methylenehydrazono]thiazolidin-4-one]
≥ 75%: mortality at 500 ppm [1] | mortality at 800 ppm [6] | mortality at 500 ppm [2] | mortality at 500 ppm [3] | mortality at 800 ppm [4] | mortality at 800 ppm [5] | mortality at 800 ppm [7]

CC(C)c1ccccc1N1C(=O)CS/C1=N\N=C\c1cc2ccc3c(ncn3-c3ccc(OC(F)(F)F)cc3)c2cn1 [Compound C-26, (2Z)-3-(2-isopropylphenyl)-2-[(E)-[3-[4-(trifluoromethoxy)phenyl]imidazo[4,5-h]isoquinolin-7-yl]methylenehydrazono]thiazolidin-4-one]
≥ 75%: mortality at 500 ppm [1] | mortality at 800 ppm [6] | mortality at 500 ppm [3] | mortality at 800 ppm [4] | mortality at 800 ppm [5] | mortality at 800 ppm [7] | mortality at 500 ppm [8]

Cc1cccc(C)c1N1C(=O)CS/C1=N\N=C\c1cc2ccc3c(ncn3-c3ccc(OC(F)(F)F)cc3)c2cn1 [Compound C-27, (2Z)-3-(2,6-dimethylphenyl)-2-[(E)-[3-[4-(trifluoromethoxy)phenyl]imidazo[4,5-h]isoquinolin-7-yl]methylenehydrazono]thiazolidin-4-one]
≥ 75%: mortality at 500 ppm [1] | mortality at 800 ppm [6] | mortality at 500 ppm [3] | mortality at 800 ppm [4] | mortality at 800 ppm [5] | mortality at 800 ppm [7] | mortality at 500 ppm [8]

Cc1cccc(C)c1/N=C1\SCC(=O)N1/N=C/c1cc2ccc3c(ncn3-c3ccc(OC(F)(F)F)cc3)c2cn1 [Compound C-29, (2Z)-2-(2,6-dimethylphenyl)imino-3-[(E)-[3-[4-(trifluoromethoxy)phenyl]imidazo[4,5-h]isoquinolin-7-yl]methyleneamino]thiazolidin-4-one]
≥ 75%: mortality at 500 ppm [1] | mortality at 800 ppm [6] | mortality at 500 ppm [2] | mortality at 500 ppm [3] | mortality at 800 ppm [4] | mortality at 800 ppm [5] | mortality at 800 ppm [7]
